Laboratory results: US20240100025A1, “Materials and Methods for Treating Viral and Other Medical Conditions” (Biotronik AG, priority 2020, published 2024)

Experiments:
[1] = oral; cited from earlier work
[2] = Novartis everolimus study, rats; cited from earlier work
Hantavirus = conditions: 0.05 μM, lowest concentration studied; cited from earlier work

## CO[C@H]1C[C@@H]2CC[C@@H](C)[C@@](O)(O2)C(=O)C(=O)N2CCCC[C@H]2C(=O)O[C@H]([C@H](C)C[C@@H]2CC[C@@H](O)[C@H](OC)C2)CC(=O)[C@H](C)/C=C(\C)[C@@H](O)[C@@H](OC)C(=O)[C@H](C)C[C@H](C)/C=C/C=C/C=C/1C [sirolimus, Rapamycin]
[1]
  bioavailability: ~14%
Protein binding
  fraction unbound: 0.049

## CO[C@H]1C[C@@H]2CC[C@@H](C)[C@@](O)(O2)C(=O)C(=O)N2CCCC[C@H]2C(=O)O[C@H]([C@H](C)C[C@@H]2CC[C@@H](OCCO)[C@H](OC)C2)CC(=O)[C@H](C)/C=C(\C)[C@@H](O)[C@@H](OC)C(=O)[C@H](C)C[C@H](C)/C=C/C=C/C=C/1C [everolimus]
[2]
  tissue distribution, highest drug concentrations: highest drug concentrations were in the gastrointestinal tract and liver

## CO[C@H]1C[C@@H]2CC[C@@H](C)[C@@](O)(O2)C(=O)C(=O)N2CCCC[C@H]2C(=O)O[C@H]([C@H](C)C[C@@H]2CC[C@@H](OC(=O)C(C)(CO)CO)[C@H](OC)C2)CC(=O)[C@H](C)/C=C(\C)[C@@H](O)[C@@H](OC)C(=O)[C@H](C)C[C@H](C)/C=C/C=C/C=C/1C [temsirolimus]
Hantavirus
  reduction in virus titers: 50%
